According to ChEMBL document CHEMBL3044896, “A facile route for the synthesis 1,4-disubstituted tetrazolone derivatives and evaluation of their antimicrobial activity” (2013):

Legend:
Aspergillus niger [1] = assay: Antifungal activity against Aspergillus niger at 100 ug/ml after 48 hr by agar well diffusion method; type: functional; conditions: read-out: IZ
Staphylococcus aureus [2] = assay: Antibacterial activity against Staphylococcus aureus ATCC 29737 at 100 ug/ml after 18 to 24 hr by agar well diffusion method; type: functional; conditions: read-out: IZ
Bacillus subtilis [3] = assay: Antibacterial activity against Bacillus subtilis ATCC 6633 at 100 ug/ml after 18 to 24 hr by agar well diffusion method; type: functional; conditions: read-out: IZ
Klebsiella aerogenes [4] = assay: Antibacterial activity against Enterobacter aerogenes NCIM 5139 at 100 ug/ml after 18 to 24 hr by agar well diffusion method; type: functional; conditions: read-out: IZ
Escherichia coli [5] = assay: Antibacterial activity against Escherichia coli ATCC 2343 at 100 ug/ml after 18 to 24 hr by agar well diffusion method; type: functional; conditions: read-out: IZ
Candida albicans [6] = assay: Antifungal activity against Candida albicans at 100 ug/ml after 48 hr by agar well diffusion method; type: functional; conditions: read-out: IZ
Bacillus subtilis [7] = assay: microbe, parasite or virus in culture; conditions: ATCC 6633, read-out: IZ
Description: Antibacterial activity against Bacillus subtilis ATCC 6633 at 40 ug/ml after 18 to 24 hr by agar well diffusion method

Escherichia coli [8] = assay: microbe, parasite or virus in culture; conditions: ATCC 2343, read-out: IZ
Description: Antibacterial activity against Escherichia coli ATCC 2343 at 40 ug/ml after 18 to 24 hr by agar well diffusion method

Klebsiella aerogenes [9] = assay: Antibacterial activity against Enterobacter aerogenes NCIM 5139 at 40 ug/ml after 18 to 24 hr by agar well diffusion method; type: functional; conditions: read-out: IZ
Staphylococcus aureus [10] = assay: microbe, parasite or virus in culture; conditions: ATCC 29737, read-out: IZ
Description: Antibacterial activity against Staphylococcus aureus ATCC 29737 at 40 ug/ml after 18 to 24 hr by agar well diffusion method

Candida albicans [11] = assay: Antifungal activity against Candida albicans at 30 ug/ml after 48 hr by agar well diffusion method; type: functional; conditions: read-out: IZ
Aspergillus niger [12] = assay: Antifungal activity against Aspergillus niger at 30 ug/ml after 48 hr by agar well diffusion method; type: functional; conditions: read-out: IZ

Compound `CCOC(=O)/C(=C/c1ccc(Cl)cc1)Cn1nnn(-c2ccc(C(F)(F)F)cc2)c1=O` has a zone of inhibition at 100 µg/mL (Aspergillus niger [1]) of 9 mm, a zone of inhibition at 100 µg/mL (Staphylococcus aureus [2]) of 15 mm and a zone of inhibition at 100 µg/mL (Bacillus subtilis [3]) of 15 mm. It also gave a zone of inhibition at 100 µg/mL (Klebsiella aerogenes [4]) of 11 mm and a zone of inhibition at 100 µg/mL (Escherichia coli [5]) of 9 mm.

`COC(=O)/C(=C/c1ccc([N+](=O)[O-])cc1)Cn1nnn(-c2ccc(OC)cc2)c1=O` showed a zone of inhibition at 100 µg/mL (Staphylococcus aureus [2]) of 12 mm, a zone of inhibition at 100 µg/mL (Bacillus subtilis [3]) of 10 mm and a zone of inhibition at 100 µg/mL (Klebsiella aerogenes [4]) of 8 mm. The zone of inhibition at 100 µg/mL (Escherichia coli [5]) was 6 mm.

Compound `COC(=O)/C(=C/c1ccc([N+](=O)[O-])cc1)Cn1nnn(-c2ccc(C(F)(F)F)cc2)c1=O` has a zone of inhibition at 100 µg/mL (Candida albicans [6]) of 12 mm, a zone of inhibition at 100 µg/mL (Aspergillus niger [1]) of 11 mm and a zone of inhibition at 100 µg/mL (Staphylococcus aureus [2]) of 12 mm. For the same compound, the zone of inhibition at 100 µg/mL (Bacillus subtilis [3]) was 10 mm, the zone of inhibition at 100 µg/mL (Klebsiella aerogenes [4]) was 8 mm and the zone of inhibition at 100 µg/mL (Escherichia coli [5]) was 6 mm.

`COC(=O)/C(=C/c1ccc(OC)cc1)Cn1nnn(-c2ccc(OC)cc2)c1=O` gave a zone of inhibition at 100 µg/mL (Candida albicans [6]) of 17 mm, a zone of inhibition at 100 µg/mL (Aspergillus niger [1]) of 16 mm and a zone of inhibition at 100 µg/mL (Staphylococcus aureus [2]) of 17 mm. The zone of inhibition at 100 µg/mL (Bacillus subtilis [3]) was 16 mm.

`COC(=O)/C(=C/c1ccc(OC)c(OC)c1)Cn1nnn(-c2ccc(OC)cc2)c1=O` showed a zone of inhibition at 100 µg/mL (Klebsiella aerogenes [4]) of 17 mm and a zone of inhibition at 100 µg/mL (Escherichia coli [5]) of 9 mm.

`COc1ccc(-n2nnn(C/C(C#N)=C/c3ccccc3)c2=O)cc1` gave a zone of inhibition at 100 µg/mL (Candida albicans [6]) of 9 mm, a zone of inhibition at 100 µg/mL (Aspergillus niger [1]) of 6 mm and a zone of inhibition at 100 µg/mL (Staphylococcus aureus [2]) of 17 mm. It also gave a zone of inhibition at 100 µg/mL (Bacillus subtilis [3]) of 12 mm, a zone of inhibition at 100 µg/mL (Klebsiella aerogenes [4]) of 11 mm and a zone of inhibition at 100 µg/mL (Escherichia coli [5]) of 7 mm.

`N#C/C(=C\c1ccccc1)Cn1nnn(-c2ccc(C(F)(F)F)cc2)c1=O` showed a zone of inhibition at 100 µg/mL (Candida albicans [6]) of 15 mm, a zone of inhibition at 100 µg/mL (Aspergillus niger [1]) of 16 mm and a zone of inhibition at 100 µg/mL (Staphylococcus aureus [2]) of 22 mm. The zone of inhibition at 100 µg/mL (Bacillus subtilis [3]) was 23 mm, the zone of inhibition at 100 µg/mL (Klebsiella aerogenes [4]) was 19 mm and the zone of inhibition at 100 µg/mL (Escherichia coli [5]) was 9 mm.

`N#C/C(=C\c1ccc(Cl)cc1)Cn1nnn(-c2ccc(C(F)(F)F)cc2)c1=O` was tested, and the zone of inhibition at 100 µg/mL (Aspergillus niger [1]) was 5 mm, the zone of inhibition at 100 µg/mL (Staphylococcus aureus [2]) was 13 mm and the zone of inhibition at 100 µg/mL (Bacillus subtilis [3]) was 7 mm. For the same compound, the zone of inhibition at 100 µg/mL (Klebsiella aerogenes [4]) was 14 mm and the zone of inhibition at 100 µg/mL (Escherichia coli [5]) was 7 mm.

Compound `Cc1ccc(/C=C(\C#N)Cn2nnn(-c3ccccc3)c2=O)cc1` has a zone of inhibition at 100 µg/mL (Candida albicans [6]) of 7 mm, a zone of inhibition at 100 µg/mL (Aspergillus niger [1]) of 4 mm and a zone of inhibition at 100 µg/mL (Staphylococcus aureus [2]) of 17 mm. For the same compound, the zone of inhibition at 100 µg/mL (Bacillus subtilis [3]) was 16 mm, the zone of inhibition at 100 µg/mL (Klebsiella aerogenes [4]) was 14 mm and the zone of inhibition at 100 µg/mL (Escherichia coli [5]) was 8 mm.

With `COc1ccc(-n2nnn(C/C(C#N)=C/c3ccc(C)cc3)c2=O)cc1` the zone of inhibition at 100 µg/mL (Candida albicans [6]) was 19 mm, the zone of inhibition at 100 µg/mL (Aspergillus niger [1]) was 15 mm and the zone of inhibition at 100 µg/mL (Staphylococcus aureus [2]) was 19 mm. The zone of inhibition at 100 µg/mL (Bacillus subtilis [3]) was 16 mm, the zone of inhibition at 100 µg/mL (Klebsiella aerogenes [4]) was 16 mm and the zone of inhibition at 100 µg/mL (Escherichia coli [5]) was 14 mm.

`Cc1ccc(/C=C(\C#N)Cn2nnn(-c3ccc(C(F)(F)F)cc3)c2=O)cc1` showed a zone of inhibition at 100 µg/mL (Klebsiella aerogenes [4]) of 6 mm and a zone of inhibition at 100 µg/mL (Escherichia coli [5]) of 3 mm.

`COc1ccc(/C=C(\C#N)Cn2nnn(-c3ccc(OC)cc3)c2=O)cc1` gave a zone of inhibition at 100 µg/mL (Candida albicans [6]) of 16 mm, a zone of inhibition at 100 µg/mL (Aspergillus niger [1]) of 14 mm and a zone of inhibition at 100 µg/mL (Staphylococcus aureus [2]) of 21 mm. For the same compound, the zone of inhibition at 100 µg/mL (Bacillus subtilis [3]) was 18 mm, the zone of inhibition at 100 µg/mL (Klebsiella aerogenes [4]) was 19 mm and the zone of inhibition at 100 µg/mL (Escherichia coli [5]) was 14 mm.

`COc1ccc(/C=C(\C#N)Cn2nnn(-c3ccc(C(F)(F)F)cc3)c2=O)cc1` gave a zone of inhibition at 100 µg/mL (Candida albicans [6]) of 16 mm, a zone of inhibition at 100 µg/mL (Aspergillus niger [1]) of 11 mm and a zone of inhibition at 100 µg/mL (Staphylococcus aureus [2]) of 16 mm. It also gave a zone of inhibition at 100 µg/mL (Bacillus subtilis [3]) of 11 mm, a zone of inhibition at 100 µg/mL (Klebsiella aerogenes [4]) of 12 mm and a zone of inhibition at 100 µg/mL (Escherichia coli [5]) of 5 mm.

Compound `COc1ccc(-n2nnn(C/C(C#N)=C/c3ccc(OC)c(OC)c3)c2=O)cc1` has a zone of inhibition at 100 µg/mL (Candida albicans [6]) of 4 mm, a zone of inhibition at 100 µg/mL (Staphylococcus aureus [2]) of 21 mm and a zone of inhibition at 100 µg/mL (Bacillus subtilis [3]) of 11 mm. For the same compound, the zone of inhibition at 100 µg/mL (Klebsiella aerogenes [4]) was 16 mm and the zone of inhibition at 100 µg/mL (Escherichia coli [5]) was 7 mm.

With `COc1ccc(/C=C(\C#N)Cn2nnn(-c3ccc(C(F)(F)F)cc3)c2=O)cc1OC` the zone of inhibition at 100 µg/mL (Candida albicans [6]) was 16 mm, the zone of inhibition at 100 µg/mL (Aspergillus niger [1]) was 10 mm and the zone of inhibition at 100 µg/mL (Staphylococcus aureus [2]) was 16 mm. It also gave a zone of inhibition at 100 µg/mL (Bacillus subtilis [3]) of 14 mm, a zone of inhibition at 100 µg/mL (Klebsiella aerogenes [4]) of 12 mm and a zone of inhibition at 100 µg/mL (Escherichia coli [5]) of 7 mm.

`COC(=O)/C(=C/c1ccc(F)cc1)Cn1nnn(-c2ccccc2)c1=O` gave a zone of inhibition at 100 µg/mL (Aspergillus niger [1]) of 3 mm, a zone of inhibition at 100 µg/mL (Staphylococcus aureus [2]) of 7 mm and a zone of inhibition at 100 µg/mL (Bacillus subtilis [3]) of 6 mm. It also gave a zone of inhibition at 100 µg/mL (Klebsiella aerogenes [4]) of 3 mm and a zone of inhibition at 100 µg/mL (Escherichia coli [5]) of 4 mm.

For `COC(=O)/C(=C/c1ccc(F)cc1)Cn1nnn(-c2ccc(OC)cc2)c1=O`, the zone of inhibition at 100 µg/mL (Candida albicans [6]) was 17 mm, the zone of inhibition at 100 µg/mL (Aspergillus niger [1]) was 18 mm and the zone of inhibition at 100 µg/mL (Staphylococcus aureus [2]) was 15 mm. The zone of inhibition at 100 µg/mL (Bacillus subtilis [3]) was 19 mm, the zone of inhibition at 100 µg/mL (Klebsiella aerogenes [4]) was 15 mm and the zone of inhibition at 100 µg/mL (Escherichia coli [5]) was 18 mm.

`COC(=O)/C(=C/c1ccc(Cl)cc1)Cn1nnn(-c2ccc(OC)cc2)c1=O` was tested, and the zone of inhibition at 100 µg/mL (Candida albicans [6]) was 5 mm, the zone of inhibition at 100 µg/mL (Staphylococcus aureus [2]) was 7 mm and the zone of inhibition at 100 µg/mL (Bacillus subtilis [3]) was 14 mm. It also gave a zone of inhibition at 100 µg/mL (Klebsiella aerogenes [4]) of 6 mm and a zone of inhibition at 100 µg/mL (Escherichia coli [5]) of 5 mm.

Compound `CCOC(=O)/C(=C/c1ccc(Cl)cc1)Cn1nnn(-c2ccc(OC)cc2)c1=O` has a zone of inhibition at 100 µg/mL (Candida albicans [6]) of 12 mm, a zone of inhibition at 100 µg/mL (Aspergillus niger [1]) of 11 mm and a zone of inhibition at 100 µg/mL (Staphylococcus aureus [2]) of 22 mm. For the same compound, the zone of inhibition at 100 µg/mL (Bacillus subtilis [3]) was 20 mm.

Compound `CCOC(=O)/C(=C/c1ccc(Cl)cc1)Cn1nnn(-c2ccccc2)c1=O` has a zone of inhibition at 100 µg/mL (Candida albicans [6]) of 18 mm, a zone of inhibition at 100 µg/mL (Aspergillus niger [1]) of 16 mm and a zone of inhibition at 100 µg/mL (Staphylococcus aureus [2]) of 23 mm. The zone of inhibition at 100 µg/mL (Bacillus subtilis [3]) was 20 mm, the zone of inhibition at 100 µg/mL (Klebsiella aerogenes [4]) was 17 mm and the zone of inhibition at 100 µg/mL (Escherichia coli [5]) was 19 mm.

In the case of `O=C(O)c1cn(C2CC2)c2cc(N3CCNCC3)c(F)cc2c1=O` [CIPROFLOXACIN], the zone of inhibition at 40 µg/mL (Bacillus subtilis [7]) is reported as 10 mm, the zone of inhibition at 40 µg/mL (Escherichia coli [8]) is reported as 18 mm and the zone of inhibition at 40 µg/mL (Klebsiella aerogenes [9]) is reported as 24 mm. The zone of inhibition at 40 µg/mL (Staphylococcus aureus [10]) was 22 mm.

With `CCC(C)n1ncn(-c2ccc(N3CCN(c4ccc(OCC5COC(Cn6cncn6)(c6ccc(Cl)cc6Cl)O5)cc4)CC3)cc2)c1=O` (configuration not stated) [ITRACONAZOLE] the zone of inhibition at 30 µg/mL (Candida albicans [11]) was 20 mm and the zone of inhibition at 30 µg/mL (Aspergillus niger [12]) was 17 mm.
